This passage reports Kd results from BindingDB's records for PubMed 35671625 (Northwest University, 2022).

Usually Kd stands for the equilibrium constant for the complex coming apart.

For the experiment, the target named is Beta-2 adrenergic receptor (Homo sapiens, UniProt P07550). Description: Displacement of [3H]-CGP12,177 from immobilized Halo tag-fused beta2 adrenoceptor (unknown origin) expressed in Escherichia coli BL21 (DE3).
Sequence of Beta-2 adrenergic receptor (P07550 whole entry, the tested form may be a part): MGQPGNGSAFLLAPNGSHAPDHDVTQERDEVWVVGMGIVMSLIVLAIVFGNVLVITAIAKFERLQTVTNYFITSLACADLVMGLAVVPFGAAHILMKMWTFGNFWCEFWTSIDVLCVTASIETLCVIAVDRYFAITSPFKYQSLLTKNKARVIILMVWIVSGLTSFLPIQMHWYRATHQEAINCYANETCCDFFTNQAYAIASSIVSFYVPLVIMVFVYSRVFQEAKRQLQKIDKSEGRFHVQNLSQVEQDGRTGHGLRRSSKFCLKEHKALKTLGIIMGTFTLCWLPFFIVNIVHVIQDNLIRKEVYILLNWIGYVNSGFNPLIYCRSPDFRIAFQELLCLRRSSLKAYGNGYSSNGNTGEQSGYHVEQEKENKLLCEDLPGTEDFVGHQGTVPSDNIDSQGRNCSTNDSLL

In the case of `CNC(C)Cc1ccccc1OC` (stereo unspecified) [Methoxyphenamine], the Kd was 2.1 nM.
